Source: the supplement of paper PMC11451515

Tests used:
Conditions in all cases: 48 h
SEM cells [1] = experiment: cell viability relative to DMSO control; higher = less cytotoxic
Outline: (§1)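 Leukemia cells (NOMO1 or SEM, 500 cells/well; P12-Ichikawa, 1000 cells/well) were seeded in 5 μl in 1536-well plates after at least four passages of adaptation to each medium. They received library compounds in DMSO by pin dosing, 11 threefold points from 47 μM to 0.79 nM. Luminescence with CellTiter-Glo One was read after 48 h at 37°C. Viability is stated per plate relative to DMSO wells, with cell-free wells as background.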

NOMO1 [2] = experiment: as above
Outline: as §1

P12-Ichikawa [3] = experiment: as above
Outline: as §1

SEM cells [4] = experiment: AUC of viability dose-response curve (% viability x log10 dose units); higher = less sensitive
Outline: (§2)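 Leukemia cells adapted to each medium were seeded in 1536-well plates (500 or 1000 cells/well) and given library compounds in DMSO for 48 h at 37°C. The 11 threefold doses spanned 47 μM to 0.79 nM, and CellTiter-Glo One luminescence was normalised per plate to DMSO and cell-free wells before four-parameter log-logistic fitting on log10 dose. Area under the curve was integrated with the trapezoidal rule, scaling curves above full viability and removing curves that failed quality control.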

NOMO1 [5] = experiment: as above
Outline: as §2

P12-Ichikawa [6] = experiment: as above
Outline: as §2

CO[C@H]1C[C@@H]2CC[C@@H](C)[C@@](O)(O2)C(=O)C(=O)N2CCCC[C@H]2C(=O)O[C@H]([C@H](C)C[C@@H]2CC[C@@H](OCCO)[C@H](OC)C2)CC(=O)[C@H](C)/C=C(/C)[C@@H](O)[C@@H](OC)C(=O)[C@H](C)C[C@H](C)\C=C/C=C\C=C/1C
cell viability [%]
Conditions	NOMO1 [2]	P12-Ichikawa [3]	SEM cells [1]
HPLM + 10% dialyzed FBS, 0.000781 µM	91.8	101	47.5
HPLM + 10% dialyzed FBS, 0.00234 µM	97.5	109	91.9
HPLM + 10% dialyzed FBS, 0.00702 µM	95.7	104	74.6
HPLM + 10% dialyzed FBS, 0.0211 µM	92.9	94.1	65.2
HPLM + 10% dialyzed FBS, 0.0632 µM	81.7	99.9	77.2
HPLM + 10% dialyzed FBS, 0.19 µM	95.4	98.9	58.6
HPLM + 10% dialyzed FBS, 0.569 µM	80.7	96.5	42.7
HPLM + 10% dialyzed FBS, 1.71 µM	68.8	86.6	42.1
HPLM + 10% dialyzed FBS, 5.12 µM	73.8	76.7	20.8
HPLM + 10% dialyzed FBS, 15.4 µM	64.1	44.7	10.7
HPLM + 10% dialyzed FBS, 46.1 µM	57.4	50.3	14.2
RPMI 5 mM glucose + 10% FBS, 0.000781 µM	86.5	82.5	51.7
RPMI 5 mM glucose + 10% FBS, 0.00234 µM	94.6	94	86.2
RPMI 5 mM glucose + 10% FBS, 0.00702 µM	97.8	89.6	71.1
RPMI 5 mM glucose + 10% FBS, 0.0211 µM	99.4	79.2	71.7
RPMI 5 mM glucose + 10% FBS, 0.0632 µM	98.4	77.8	75
RPMI 5 mM glucose + 10% FBS, 0.19 µM	94.2	77.7	64.9
RPMI 5 mM glucose + 10% FBS, 0.569 µM	85.4	68.8	41.5
RPMI 5 mM glucose + 10% FBS, 1.71 µM	88	70.6	28.4
RPMI 5 mM glucose + 10% FBS, 5.12 µM	84.8	51.8	17.2
RPMI 5 mM glucose + 10% FBS, 15.4 µM	61.3	25.7	12.9
RPMI 5 mM glucose + 10% FBS, 46.1 µM	70.8	26.1	12.6
RPMI 5 mM glucose + 10% dialyzed FBS, 0.000781 µM	85	90.8	50.8
RPMI 5 mM glucose + 10% dialyzed FBS, 0.00234 µM	91.2	99.1	84
RPMI 5 mM glucose + 10% dialyzed FBS, 0.00702 µM	84.5	93.7	73.8
RPMI 5 mM glucose + 10% dialyzed FBS, 0.0211 µM	76.7	84.9	65.4
RPMI 5 mM glucose + 10% dialyzed FBS, 0.0632 µM	85	85.8	68.3
RPMI 5 mM glucose + 10% dialyzed FBS, 0.19 µM	78.1	87.1	63.4
RPMI 5 mM glucose + 10% dialyzed FBS, 0.569 µM	78.7	80.5	49.5
RPMI 5 mM glucose + 10% dialyzed FBS, 1.71 µM	73.1	78.1	37
RPMI 5 mM glucose + 10% dialyzed FBS, 5.12 µM	76.3	51.4	13.7
RPMI 5 mM glucose + 10% dialyzed FBS, 15.4 µM	58.9	33.4	10.4
RPMI 5 mM glucose + 10% dialyzed FBS, 46.1 µM	61.5	33.9	11.8

AUC of viability dose-response curve
Conditions	NOMO1 [5]	P12-Ichikawa [6]	SEM cells [4]
HPLM + 10% dialyzed FBS	393	420	240
RPMI 5 mM glucose + 10% FBS	421	329	234
RPMI 5 mM glucose + 10% dialyzed FBS	370	362	233

CC[C@@]1([C@@H]2O[C@@H]([C@H]3O[C@@](O)(CO)[C@H](C)C[C@@H]3C)C[C@@H]2C)CC[C@H]([C@]2(C)CC[C@]3(C[C@H](O)[C@@H](C)[C@@H]([C@@H](C)[C@@H](OC)[C@H](C)C(=O)[O-])O3)O2)O1
AUC of viability dose-response curve
Conditions	NOMO1 [5]	P12-Ichikawa [6]	SEM cells [4]
HPLM + 10% dialyzed FBS	381	375	336
RPMI 5 mM glucose + 10% FBS	409	350	324
RPMI 5 mM glucose + 10% dialyzed FBS	393	340	343

Nc1nc(F)nc2c1ncn2[C@@H]1O[C@H](CO)[C@@H](O)[C@H]1O
SEM cells [1], RPMI 5 mM glucose + 10% FBS
Conditions	cell viability [%]
0.000781 µM	114
0.00234 µM	119
0.00702 µM	125
0.0211 µM	141
0.0632 µM	115
0.19 µM	13.2
0.569 µM	10.9
1.71 µM	7.49
5.12 µM	6.64
15.4 µM	6.09
46.1 µM	6.22

AUC of viability dose-response curve
Conditions	NOMO1 [5]	P12-Ichikawa [6]	SEM cells [4]
HPLM + 10% dialyzed FBS	283	293	228
RPMI 5 mM glucose + 10% FBS	291	293	229
RPMI 5 mM glucose + 10% dialyzed FBS	279	282	217

COC1=CC2=C(C=C1OC)[C@H]3[C@@H](CO2)OC4=C(C=CC5=C4\C=C/C(C)(C)O5)C3=O
cell viability [%]
Conditions	NOMO1 [2]	P12-Ichikawa [3]	SEM cells [1]
HPLM + 10% dialyzed FBS, 0.000781 µM	82.8	95.5	82.5
HPLM + 10% dialyzed FBS, 0.00234 µM	89.3	103	97.1
HPLM + 10% dialyzed FBS, 0.00702 µM	106	96.9	101
HPLM + 10% dialyzed FBS, 0.0211 µM	96.8	99.9	96.8
HPLM + 10% dialyzed FBS, 0.0632 µM	95	93.5	85.3
HPLM + 10% dialyzed FBS, 0.19 µM	98.5	102	89
HPLM + 10% dialyzed FBS, 0.569 µM	94	93.5	92.7
HPLM + 10% dialyzed FBS, 1.71 µM	82.8	69.7	91
HPLM + 10% dialyzed FBS, 5.12 µM	70.4	67.7	78.9
HPLM + 10% dialyzed FBS, 15.4 µM	69.3	65.6	85.2
HPLM + 10% dialyzed FBS, 46.1 µM	10.3	2.52	3.39
RPMI 5 mM glucose + 10% FBS, 0.000781 µM	88.8	89	95.1
RPMI 5 mM glucose + 10% FBS, 0.00234 µM	95.3	94.9	99.1
RPMI 5 mM glucose + 10% FBS, 0.00702 µM	93.3	98.9	107
RPMI 5 mM glucose + 10% FBS, 0.0211 µM	99.2	95.9	95.6
RPMI 5 mM glucose + 10% FBS, 0.0632 µM	89	69.6	78.5
RPMI 5 mM glucose + 10% FBS, 0.19 µM	93.6	80	112
RPMI 5 mM glucose + 10% FBS, 0.569 µM	90.8	62.2	85.4
RPMI 5 mM glucose + 10% FBS, 1.71 µM	82.8	52.1	71
RPMI 5 mM glucose + 10% FBS, 5.12 µM	78.7	48.3	24.4
RPMI 5 mM glucose + 10% FBS, 15.4 µM	76.5	46.5	31
RPMI 5 mM glucose + 10% FBS, 46.1 µM	9.87	3.34	3.59
RPMI 5 mM glucose + 10% dialyzed FBS, 0.000781 µM	86.3	84.1	87.7
RPMI 5 mM glucose + 10% dialyzed FBS, 0.00234 µM	88.1	89.1	85.1
RPMI 5 mM glucose + 10% dialyzed FBS, 0.00702 µM	91	93.8	92.4
RPMI 5 mM glucose + 10% dialyzed FBS, 0.0211 µM	95.2	88.9	88.9
RPMI 5 mM glucose + 10% dialyzed FBS, 0.0632 µM	79.9	74.4	64.6
RPMI 5 mM glucose + 10% dialyzed FBS, 0.19 µM	98.1	79.1	79.2
RPMI 5 mM glucose + 10% dialyzed FBS, 0.569 µM	94.3	69.3	75.4
RPMI 5 mM glucose + 10% dialyzed FBS, 1.71 µM	88.5	62.1	63
RPMI 5 mM glucose + 10% dialyzed FBS, 5.12 µM	81.9	58.5	44.8
RPMI 5 mM glucose + 10% dialyzed FBS, 15.4 µM	81.4	60.9	46.2
RPMI 5 mM glucose + 10% dialyzed FBS, 46.1 µM	21.4	3.49	3.18

AUC of viability dose-response curve
Conditions	NOMO1 [5]	P12-Ichikawa [6]	SEM cells [4]
HPLM + 10% dialyzed FBS	402	399	409
RPMI 5 mM glucose + 10% FBS	404	327	357
RPMI 5 mM glucose + 10% dialyzed FBS	406	341	326
